Patent publication US20120165310A1, “ETHER DERIVATIVES OF BICYCLIC HETEROARYLS” (NOVARTIS AG, priority 2009, published 2012)

target: T1, IGF-1R (Homo sapiens, UniProt P08069); assay: Cellular IGF-1R assay: capture ELISA (MSD) of receptor phosphorylation in Hek293 cells; format: cell-based; conditions: Hek293-IGF1R cells, 1 h pre-incubation, 10 min IGF stimulation, pIGF1R capture ELISA
T1 construct: expressed in transfected cells; host or cells: Hek293 (Hek293-IGF1R)
Summary of the method: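 IC50 from 4-parameter fit of IGF1R phosphorylation, normalised to IGF-stimulated and unstimulated controls, measured by MSD capture ELISA on lysates. Hek293-IGF1R cells in starvation medium got compound 1 h (top 10 μM, 3-fold steps, 0.1% DMSO) before a 10 min pulse of 1.0 ng/μL IGF.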

T1 sequence (P08069 31-1367): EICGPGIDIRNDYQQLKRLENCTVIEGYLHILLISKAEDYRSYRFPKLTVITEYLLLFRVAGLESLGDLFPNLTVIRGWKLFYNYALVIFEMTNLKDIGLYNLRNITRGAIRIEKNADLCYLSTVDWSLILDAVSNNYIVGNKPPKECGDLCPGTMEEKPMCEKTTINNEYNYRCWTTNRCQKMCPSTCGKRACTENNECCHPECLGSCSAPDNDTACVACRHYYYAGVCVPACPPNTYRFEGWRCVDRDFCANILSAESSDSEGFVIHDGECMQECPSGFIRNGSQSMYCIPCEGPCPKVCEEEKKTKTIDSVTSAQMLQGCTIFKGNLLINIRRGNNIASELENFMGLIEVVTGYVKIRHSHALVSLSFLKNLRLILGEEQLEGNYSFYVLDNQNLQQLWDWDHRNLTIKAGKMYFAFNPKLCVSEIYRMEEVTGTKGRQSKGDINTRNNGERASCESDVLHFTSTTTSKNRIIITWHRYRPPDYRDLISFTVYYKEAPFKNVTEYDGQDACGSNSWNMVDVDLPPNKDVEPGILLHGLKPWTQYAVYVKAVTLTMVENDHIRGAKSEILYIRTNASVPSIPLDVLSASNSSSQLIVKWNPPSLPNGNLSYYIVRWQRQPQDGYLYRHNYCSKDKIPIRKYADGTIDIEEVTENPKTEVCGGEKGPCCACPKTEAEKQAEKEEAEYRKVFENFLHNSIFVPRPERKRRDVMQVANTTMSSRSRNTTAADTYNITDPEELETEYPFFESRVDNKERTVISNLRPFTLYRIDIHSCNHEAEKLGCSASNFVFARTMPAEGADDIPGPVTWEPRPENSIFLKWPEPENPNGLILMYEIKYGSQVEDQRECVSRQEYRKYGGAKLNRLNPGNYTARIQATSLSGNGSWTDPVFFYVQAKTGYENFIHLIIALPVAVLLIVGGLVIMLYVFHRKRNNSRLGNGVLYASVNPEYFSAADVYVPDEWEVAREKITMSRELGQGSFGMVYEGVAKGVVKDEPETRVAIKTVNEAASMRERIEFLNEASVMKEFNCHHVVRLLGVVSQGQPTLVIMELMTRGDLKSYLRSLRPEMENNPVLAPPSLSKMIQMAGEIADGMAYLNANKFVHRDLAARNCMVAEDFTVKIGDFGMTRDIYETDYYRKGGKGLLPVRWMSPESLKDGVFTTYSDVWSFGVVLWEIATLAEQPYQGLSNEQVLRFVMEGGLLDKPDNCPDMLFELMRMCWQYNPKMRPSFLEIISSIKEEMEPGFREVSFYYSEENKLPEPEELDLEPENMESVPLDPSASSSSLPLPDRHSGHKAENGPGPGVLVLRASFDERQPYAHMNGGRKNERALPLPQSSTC

Row | IC50 [nM] | SMILES
1 | 35 to 38 | Nc1ncnc2c1c(-c1cccc(OCC34CCC(CC3)O4)c1)cn2[C@H]1C[C@@H](N2CC[S+]([O-])CC2)C1 (relative stereo) [Example 232, 5-[3-(7-Oxa-bicyclo[2.2.1]hept-1-ylmethoxy)-phenyl]-7-[cis-3-(1-oxo-thiomorpholin-4-yl)-cyclobutyl]-7H-pyrrolo[2,3-d]pyrimidin-4-ylamine]
2 | 49 | CN(C)CC1(O)CC(n2cc(-c3cccc(OCC45CCC(CC4)O5)c3)c3c(N)ncnc32)C1 (centres unmarked) [Example 235, 3-{4-Amino-5-[3-(7-oxa-bicyclo[2.2.1]hept-1-ylmethoxy)-phenyl]-pyrrolo[2,3-d]pyrimidin-7-yl}-1-dimethylaminomethyl-cyclobutanol]
3 | 319 | Nc1ncnc2c1c(-c1cccc(OCC34CCC(CC3)O4)c1)cn2[C@@H]1CCN(C2CS(=O)(=O)C2)C1 [Example 225, 7-[(R)-1-(1,1-dioxo-thietan-3-yl)-pyrrolidin-3-yl]-5-[3-(7-oxa-bicyclo[2.2.1]hept-1-ylmethoxy)-phenyl]-7H-pyrrolo[2,3-d]pyrimidin-4-ylamine]
4 | 119 to 139 | Nc1ncnc2c1c(-c1cccc(OCC3CCCCO3)c1)cn2[C@H]1C[C@@H](CN2CCC2)C1 (mixture of isomers) [Example 1, (rac)-cis-7-(3-azetidin-1-ylmethyl-cyclobutyl)-5-[3-(tetrahydro-pyran-2-ylmethoxy)-phenyl]-7H-pyrrolo[2,3-d]pyrimidin-4-ylamine]
5 | 408 | Nc1ncnc2c1c(-c1cccc(OCC3CCCCO3)c1)cn2[C@H]1C[C@@H](CN2CCC(F)(F)CC2)C1 (relative stereo) [Example 31, 7-[cis-3-(4,4-difluoro-piperidin-1-ylmethyl)-cyclobutyl]-5-[3-(tetrahydro-pyran-2-ylmethoxy)-phenyl]-7H-pyrrolo[2,3-d]pyrimidin-4-ylamine]
6 | 53 | Nc1ncnc2c1c(-c1cccc(OCC34CCC(CC3)O4)c1)cn2C1CC(O)(CN2CCC(O)C2)C1 (single isomer, unassigned) [Example 204]
7 | 485 | C[C@]1(O)C[C@@H](c2nc(-c3cccc(OCC45CCC(CC4)O5)c3)c3c(N)nccn32)C1 [Example 122]
8 | 21 | Nc1ncnc2c1c(-c1cccc(OCC34CCC(CC3)O4)c1)cn2[C@H]1CC[C@@H](NC(=O)C2CCOCC2)CC1 [Example 141, N-((1S,4S)-4-(5-(3-(7-oxabicyclo[2.2.1]heptan-1-ylmethoxy)phenyl)-4-amino-7H-pyrrolo[2,3-d]pyrimidin-7-yl)cyclohexyl)tetrahydro-2H-pyran-4-carboxamide]
9 | 543 | Nc1ncnc2c1c(-c1cccc(OCC34CCC(CC3)O4)c1)cn2C1CCC2(CC1)CNC(=O)O2 (centres unmarked) [Example 139, 8-(5-(3-(7-oxabicyclo[2.2.1]heptan-1-ylmethoxy)phenyl)-4-amino-7H-pyrrolo[2,3-d]pyrimidin-7-yl)-1-oxa-3-azaspiro[4.5]decan-2-one]
10 | 309 | Nc1ncnc2c1c(-c1cccc(OCC3CCCCO3)c1)cn2[C@H]1C[C@@H](CN2CCC(F)CC2)C1 (relative stereo) [Example 32, 7-[cis-3-(4-fluoro-piperidin-1-ylmethyl)-cyclobutyl]-5-[3-(tetrahydro-pyran-2-ylmethoxy)-phenyl]-7H-pyrrolo[2,3-d]pyrimidin-4-ylamine]
11 | 138 | Nc1ncnc2c1c(-c1cccc(OCC34CCC(CC3)O4)c1)cn2[C@H]1C[C@@H](N2CC(O)C2)C1 (relative stereo) [Example 191, 1-(cis-3-{4-Amino-5-[3-(7-oxa-bicyclo[2.2.1]hept-1-ylmethoxy)-phenyl]-pyrrolo[2,3-d]pyrimidin-7-yl}-cyclobutyl)-azetidin-3-ol]
12 | 166 | Nc1ncnc2c1c(-c1cccc(OC[C@@H]3CCCO3)c1)cn2[C@H]1C[C@@H](CN2CCS(=O)(=O)CC2)C1 [Example 156, 7-[cis-3-(1,1-Dioxo-1-thiomorpholin-4-ylmethyl)-cyclobutyl]-5-{3-[(S)-1-(tetrahydro-furan-2-yl)methoxy]-phenyl}-7H-pyrrolo[2,3-d]pyrimidin-4-ylamine]
13 | 47 | CN1CCN([C@H]2C[C@@H](c3nc(-c4cccc(OCC56CCC(CC5)O6)c4)c4c(N)nccn43)C2)CC1 [Example 181]
14 | 105 | NC(=O)C1CC(F)CN1CC1CC(n2cc(-c3cccc(OCC4CCCCO4)c3)c3c(N)ncnc32)C1 [Example 97, (2S,4S)-1-(((1S,3R)-3-(4-amino-5-(3-((tetrahydro-2H-pyran-2-yl)methoxy)phenyl)-7H-pyrrolo[2,3-d]pyrimidin-7-yl)cyclobutyl)methyl)-4-fluoropyrrolidine-2-carboxamide]

The remaining lines, values behind:

Row | SMILES | IC50 [nM]
15 | NC(=O)[C@H]1CCCN1C[C@H]1C[C@@H](n2cc(-c3cccc(OCC4CCCO4)c3)c3c(N)ncnc32)C1 (stereo partly drawn) [Example 81, (R)-1-(cis-3-{4-amino-5-[3-(tetrahydro-furan-2-ylmethoxy)-phenyl]-pyrrolo[2,3-d]pyrimidin-7-yl}-cyclobutylmethyl)-pyrrolidine-2-carboxylic acid amide] | 157
16 | CC1CCC(COc2cccc(-c3cn(C4CC(CN5CCC5)C4)c4ncnc(N)c34)c2)O1 (single isomer, unassigned) [Example 6, cis-(RR and SS)-7-(3-azetidin-1-ylmethyl-cyclobutyl)-5-[3-(5-methyl-tetrahydro-furan-2-ylmethoxy)-phenyl]-7H-pyrrolo[2,3-d]pyrimidin-4-ylamine] | 30
17 | Nc1ncnc2c1c(-c1cccc(OCC34CCC(CC3)O4)c1)cn2[C@H]1C[C@@](O)(CN2CCS(=O)(=O)CC2)C1 [Example 205, (E)-3-{4-Amino-5-[3-(7-oxa-bicyclo[2.2.1]hept-1-ylmethoxy)-phenyl]-pyrrolo[2,3-d]pyrimidin-7-yl}-1-(1,1-dioxo-1lambda*6*-thiomorpholin-4-ylmethyl)-cyclobutanol] | 14
18 | [2H]C([2H])(Oc1cccc(-c2cn([C@H]3C[C@@H](CN4CCS(=O)(=O)CC4)C3)c3ncnc(N)c23)c1)C12CCC(CC1)O2 [Example 159, d2-7-[cis-3-(1,1-dioxo-1-thiomorpholin-4-ylmethyl)-cyclobutyl]-5-[3-(7-oxa-bicyclo[2.2.1]hept-1-ylmethoxy)-phenyl]-7H-pyrrolo[2,3-d]pyrimidin-4-ylamine] | 7 to 14
19 | Nc1ncnc2c1c(-c1cccc(OCC34CCC(CC3)O4)c1)cn2C1CC(CN2CCS(=O)(=O)CC2)C1 (centres unmarked) [Example 24, 7-[3-(1,1-dioxo-1-thiomorpholin-4-ylmethyl)-cyclobutyl]-5-[3-(7-oxa-bicyclo[2.2.1]hept-1-ylmethoxy)-phenyl]-7H-pyrrolo[2,3-d]pyrimidin-4-ylamine] | 3.9 to 4
20 | CN1CCC(N2CCC(n3cc(-c4cccc(OCC5CCC(C)(C)O5)c4)c4c(N)ncnc43)CC2)CC1 (centres unmarked) [Example 60, 5-[3-(5,5-dimethyl-tetrahydro-furan-2-ylmethoxy)-phenyl]-7-(1′-methyl-[1,4′]bipiperidinyl-4-yl)-7H-pyrrolo[2,3-d]pyrimidin-4-ylamine] | 339
21 | Nc1ncnc2c1c(-c1cccc(OCC34CCC(CC3)O4)c1)cn2[C@H]1CC[C@@H](CN2CCSCC2)CC1 [Example 112, 5-(3-(7-oxabicyclo[2.2.1]heptan-1-ylmethoxy)phenyl)-7-((1S,4S)-4-(thiomorpholinomethyl)cyclohexyl)-7H-pyrrolo[2,3-d]pyrimidin-4-amine] | 36
22 | NC[C@H]1C[C@@H](n2cc(-c3cccc(OCC45CCC(CC4)O5)c3)c3c(N)ncnc32)C1 (relative stereo) [Example 160, 7-[cis-3-aminomethyl-cyclobutyl]-5-[3-(7-oxa-bicyclo[2.2.1]hept-1-ylmethoxy)-phenyl]-7H-pyrrolo[2,3-d]pyrimidin-4-ylamine] | 24
23 | Nc1ncnc2c1c(-c1cccc(OCC34CCC(CC3)O4)c1)cn2C1CC(O)(CN2CCC(O)CC2)C1 (centres unmarked) [Example 192, 1-(3-{4-Amino-5-[3-(7-oxa-bicyclo[2.2.1]hept-1-ylmethoxy)-phenyl]-pyrrolo[2,3-d]pyrimidin-7-yl}-1-hydroxy-cyclobutylmethyl)-piperidin-4-ol] | 63
24 | CC1(C)CCC(COc2cccc(-c3cn([C@H]4C[C@@H](CN5CCC(F)CC5)C4)c4ncnc(N)c34)c2)O1 (single isomer, unassigned) [Example 59, 7-[cis-3-(4-fluoro-piperidin-1-ylmethyl)-cyclobutyl]-5-[3-(5,5-dimethyl-tetrahydro-furan-2-ylmethoxy)-phenyl]-7H-pyrrolo[2,3-d]pyrimidin-4-ylamine] | 18
25 | Nc1ncnc2c1c(-c1cccc(OCC34CCC(CC3)O4)c1)cn2C1CC(O)(CN2CCCC2CO)C1 (single isomer, unassigned) [Example 200] | 263
26 | CN1CCN([C@H]2CC[C@@H](n3cc(-c4cccc(OC[C@H]5CCC(C)(C)O5)c4)c4c(N)ncnc43)CC2)CC1 [Example 121, 5-(3-(((R)-5,5-dimethyltetrahydrofuran-2-yl)methoxy)phenyl)-7-((1S,4S)-4-(4-methylpiperazin-1-yl)cyclohexyl)-7H-pyrrolo[2,3-d]pyrimidin-4-amine] | 149
27 | CC1(C)CCC(COc2cccc(-c3cn([C@H]4C[C@@H](CN5CCNC(=O)C5)C4)c4ncnc(N)c34)c2)O1 (stereo partly drawn) [Example 61, 4-(cis-3-{4-amino-5-[3-(5,6-dimethyl-tetrahydro-furan-2-ylmethoxy)-phenyl]-pyrrolo[2,3-d]pyrimidin-7-yl}-cyclobutylmethyl)-piperazin-2-one] | 212
28 | CSC[C@H]1C[C@@H](n2cc(-c3cccc(OCC4CCCCO4)c3)c3c(N)ncnc32)C1 (relative stereo) [Example 85, 7-(cis-3-methylsulfanylmethyl-cyclobutyl)-5-[3-(tetrahydro-pyran-2-ylmethoxy)-phenyl]-7H-pyrrolo[2,3-d]pyrimidin-4-ylamine] | 557
29 | Nc1ncnc2c1c(-c1cccc(OCC34CCC(CC3)O4)c1)cn2[C@H]1C[C@H](O)C1 [Example 222, (E)-3-{4-amino-5-[3-(7-oxa-bicyclo[2.2.1]hept-1-ylmethoxy)-phenyl]-pyrrolo[2,3-d]pyrimidin-7-yl}-cyclobutanol] | 352
